Data on 29 compounds can be found in patent US12065436B2, “Cardiac sarcomere inhibitors” (Cytokinetics, Inc., priority 2018, dated 2024).

Bounds are passed on as bounds.

For this assay, the target named is bovine cardiac myofibrils (full-length cardiac myosin ATPase in the native sarcomere) (Bos taurus (Bovine), UniProt Q9BE39). The assay is described as follows: Skinned bovine cardiac myofibril ATPase assay (PK/LDH-coupled). The class given is biochemical. As to conditions: Ca2+ activating to 75% of maximal rate; for CDMF75 IC15: concentration giving 15% inhibition; for IC50: read-out: CDMF75 IC50. The essentials:
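Triton-skinned bovine left-ventricle myofibrils (1 mg/mL) in PM 12 buffer (12 mM PIPES, 2 mM MgCl2, pH 6.8) with 50 μM ATP, 0.6 mM EGTA and CaCl2 set for 50% or 75% activation. Steady-state ATPase inhibition followed by PK/LDH-coupled NADH oxidation at 340 nm.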

Chain of bovine cardiac myofibrils (full-length cardiac myosin ATPase in the native sarcomere) (Q9BE39 whole entry): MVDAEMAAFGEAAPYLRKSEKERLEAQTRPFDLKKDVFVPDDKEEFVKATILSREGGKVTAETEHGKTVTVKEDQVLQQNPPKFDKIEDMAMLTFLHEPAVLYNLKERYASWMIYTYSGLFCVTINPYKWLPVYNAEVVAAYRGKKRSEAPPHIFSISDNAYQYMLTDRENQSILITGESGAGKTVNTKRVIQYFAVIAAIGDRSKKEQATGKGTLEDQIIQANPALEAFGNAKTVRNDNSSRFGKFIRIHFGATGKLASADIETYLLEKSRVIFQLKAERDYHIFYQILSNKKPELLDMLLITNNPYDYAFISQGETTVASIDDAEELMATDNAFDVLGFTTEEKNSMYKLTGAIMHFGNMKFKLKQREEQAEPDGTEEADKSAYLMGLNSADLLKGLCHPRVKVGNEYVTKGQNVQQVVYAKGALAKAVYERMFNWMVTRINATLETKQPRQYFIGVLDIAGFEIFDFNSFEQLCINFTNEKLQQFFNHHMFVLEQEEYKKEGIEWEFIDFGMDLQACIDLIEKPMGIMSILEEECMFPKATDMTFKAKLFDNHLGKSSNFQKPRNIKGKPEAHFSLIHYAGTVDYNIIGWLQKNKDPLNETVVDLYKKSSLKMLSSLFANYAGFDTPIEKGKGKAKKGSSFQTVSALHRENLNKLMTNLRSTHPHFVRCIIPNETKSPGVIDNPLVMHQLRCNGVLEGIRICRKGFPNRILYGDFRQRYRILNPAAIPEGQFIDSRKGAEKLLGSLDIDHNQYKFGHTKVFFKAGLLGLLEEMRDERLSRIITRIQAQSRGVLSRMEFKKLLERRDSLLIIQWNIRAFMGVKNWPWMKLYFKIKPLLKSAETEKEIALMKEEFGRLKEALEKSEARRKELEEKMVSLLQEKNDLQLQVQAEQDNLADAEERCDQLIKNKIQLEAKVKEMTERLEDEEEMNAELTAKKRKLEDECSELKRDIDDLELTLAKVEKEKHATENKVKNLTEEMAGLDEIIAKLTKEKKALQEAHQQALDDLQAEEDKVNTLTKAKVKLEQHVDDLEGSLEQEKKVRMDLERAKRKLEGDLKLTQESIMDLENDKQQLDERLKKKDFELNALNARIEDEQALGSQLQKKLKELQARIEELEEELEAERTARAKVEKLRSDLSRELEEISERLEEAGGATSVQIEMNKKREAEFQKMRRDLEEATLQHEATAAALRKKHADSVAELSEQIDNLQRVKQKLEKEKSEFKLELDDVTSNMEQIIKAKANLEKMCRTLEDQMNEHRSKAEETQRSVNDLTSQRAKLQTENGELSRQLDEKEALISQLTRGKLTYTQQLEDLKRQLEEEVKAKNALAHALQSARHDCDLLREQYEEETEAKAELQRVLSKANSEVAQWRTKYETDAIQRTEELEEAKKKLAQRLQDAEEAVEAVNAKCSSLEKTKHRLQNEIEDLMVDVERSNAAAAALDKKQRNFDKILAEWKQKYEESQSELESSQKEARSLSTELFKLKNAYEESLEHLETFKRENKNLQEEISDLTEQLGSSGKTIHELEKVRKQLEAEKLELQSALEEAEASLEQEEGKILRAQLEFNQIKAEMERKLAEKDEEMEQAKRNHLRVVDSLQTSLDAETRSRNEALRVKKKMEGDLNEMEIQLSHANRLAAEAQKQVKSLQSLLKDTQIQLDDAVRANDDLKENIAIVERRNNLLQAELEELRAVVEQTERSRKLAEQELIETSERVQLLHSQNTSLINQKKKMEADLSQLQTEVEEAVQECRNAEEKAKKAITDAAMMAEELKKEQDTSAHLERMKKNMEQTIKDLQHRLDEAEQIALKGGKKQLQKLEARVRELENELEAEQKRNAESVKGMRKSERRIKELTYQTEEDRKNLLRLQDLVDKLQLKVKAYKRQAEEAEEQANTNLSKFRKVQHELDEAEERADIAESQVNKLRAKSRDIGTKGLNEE
Chain of bovine cardiac myofibrils (full-length cardiac myosin ATPase in the native sarcomere) (P85100 whole entry partner): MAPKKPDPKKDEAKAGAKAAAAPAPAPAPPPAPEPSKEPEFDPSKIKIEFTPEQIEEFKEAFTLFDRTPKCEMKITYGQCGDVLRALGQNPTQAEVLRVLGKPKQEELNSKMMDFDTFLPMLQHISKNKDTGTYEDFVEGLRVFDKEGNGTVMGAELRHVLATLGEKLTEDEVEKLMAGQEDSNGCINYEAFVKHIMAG
Chain of bovine cardiac myofibrils (full-length cardiac myosin ATPase in the native sarcomere) (Q3SZE5 whole entry partner): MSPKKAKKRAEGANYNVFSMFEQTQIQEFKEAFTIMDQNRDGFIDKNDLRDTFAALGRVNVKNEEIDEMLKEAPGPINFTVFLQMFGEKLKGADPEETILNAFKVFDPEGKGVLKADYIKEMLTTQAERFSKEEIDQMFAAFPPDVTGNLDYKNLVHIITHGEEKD

`O=C(N[C@@H]1CCc2cc(-c3noc(C(F)F)n3)ccc21)c1cccc(CO)c1F` [Compound 662, (R)-N-(5-(5-(difluoromethyl)-1,2,4-oxadiazol-3-yl)-2,3-dihydro-1H-inden-1-yl)-2-fluoro-3-(hydroxymethyl)benzamide]: the “CDMF75 IC15” value was 1.6 µM and the IC50 is 7.2 µM.
The matching figures for `[2H]C([2H])([2H])c1nc(-c2ccc3c(c2)OC[C@H]3NC(=O)c2cnn(C)c2C)no1` [Compound 269, (S)-1,5-dimethyl-N-(6-(5-(methyl-d3)-1,2,4-oxadiazol-3-yl)-2,3-dihydrobenzofuran-3-yl)-1H-pyrazole-4-carboxamide]: 1.1 µM and 3.5 µM.
Regarding `CCc1nc(-c2ccc3c(c2)CC[C@H]3NC(=O)c2ccc(C)nc2)no1` [Compound 625, (R)-N-(5-(5-ethyl-1,2,4-oxadiazol-3-yl)-2,3-dihydro-1H-inden-1-yl)-6-methylnicotinamide], the “CDMF75 IC15” value is 0.8 µM and the IC50 was 3 µM.
The matching figures for `CCc1nc(-c2ccc3c(c2)CC[C@H]3NC(=O)c2cnn(C3CN(S(C)(=O)=O)C3)c2)no1` [Compound 478, (R)-N-(5-(5-ethyl-1,2,4-oxadiazol-3-yl)-2,3-dihydro-1H-inden-1-yl)-1-(1-(methylsulfonyl)azetidin-3-yl)-1H-pyrazole-4-carboxamide]: 2.9 µM and 11.9 µM.
The matching figures for `CCc1nc(-c2ccc3c(c2)CC[C@H]3NC(=O)c2ccnn2C)no1` [Compound 240, (R)-N-(5-(5-ethyl-1,2,4-oxadiazol-3-yl)-2,3-dihydro-1H-inden-1-yl)-1-methyl-1H-pyrazole-5-carboxamide]: 0.3 µM and 0.8 µM.
The matching figures for `CCc1nc(-c2ccc3c(c2)CC[C@H]3NC(=O)c2cccc(C=O)c2)no1` [Compound 658, (R)-N-(5-(5-ethyl-1,2,4-oxadiazol-3-yl)-2,3-dihydro-1H-inden-1-yl)-3-formylbenzamide]: 0.3 µM and 0.9 µM.
With `CCOCCn1cc(C(=O)N[C@@H]2CCc3cc(-c4noc(CC)n4)ccc32)cn1` [Compound 573, (R)-1-(2-ethoxyethyl)-N-(5-(5-ethyl-1,2,4-oxadiazol-3-yl)-2,3-dihydro-1H-inden-1-yl)-1H-pyrazole-4-carboxamide], the “CDMF75 IC15” value came out at 0.9 µM and the IC50 was 4.1 µM.
The matching figures for `Cn1cc(C(=O)NC2CCc3cc(-c4noc(C(F)F)n4)ccc32)c(C(F)(F)F)n1` (stereo not shown) [Compound 40, N-(5-(5-(difluoromethyl)-1,2,4-oxadiazol-3-yl)-2,3-dihydro-1H-inden-1-yl)-1-methyl-3-(trifluoromethyl)-1H-pyrazole-4-carboxamide]: 3.9 µM and 16.2 µM.
The matching figures for `Cc1cc(C(=O)N[C@@H]2CCc3cc(-c4nc(C)no4)ccc32)cnn1` [Compound 705, (R)-6-methyl-N-(5-(3-methyl-1,2,4-oxadiazol-5-yl)-2,3-dihydro-1H-inden-1-yl)pyridazine-4-carboxamide]: 4.9 µM and 28.1 µM.
With `COCc1nc(-c2ccc3c(c2)CCC3NC(=O)c2cn(C)nc2C)no1` (stereo not shown) [Compound 76, N-(5-(5-(methoxymethyl)-1,2,4-oxadiazol-3-yl)-2,3-dihydro-1H-inden-1-yl)-1,3-dimethyl-1H-pyrazole-4-carboxamide], the “CDMF75 IC15” value came out at 1.7 µM and the IC50 worked out at 6.1 µM.
The matching figures for `Cc1nc(-c2cnc3c(c2)CCC3NC(=O)c2ccccc2)no1` (stereo not shown) [Compound 42, N-(3-(5-methyl-1,2,4-oxadiazol-3-yl)-6,7-dihydro-5H-cyclopental[b]pyridin-7-yl)benzamide]: 7.2 µM and 31.6 µM.
The matching figures for `O=C(NC1CCc2cc(-c3noc(C(F)F)n3)ccc21)c1ocnc1C1CC1` (stereo not shown) [Compound 21, 4-cyclopropyl-N-(5-(5-(difluoromethyl)-1,2,4-oxadiazol-3-yl)-2,3-dihydro-1H-inden-1-yl)oxazole-5-carboxamide]: 0.7 µM and 2.9 µM.
The matching figures for `Cc1nc(-c2ccc3c(c2)CCC3NC(=O)c2cnoc2C)no1` (stereo not shown) [Compound 46, 5-methyl-N-(5-(5-methyl-1,2,4-oxadiazol-3-yl)-2,3-dihydro-1H-inden-1-yl)isoxazole-4-carboxamide]: 1.2 µM and 4.2 µM.
For the compound `Cc1ncc(C(=O)NC2CCc3cc(-c4noc(C(F)F)n4)ccc32)n1C` (stereo not shown) [Compound 61, N-(5-(5-(difluoromethyl)-1,2,4-oxadiazol-3-yl)-2,3-dihydro-1H-inden-1-yl)-1,2-dimethyl-1H-imidazole-5-carboxamide], the “CDMF75 IC15” value was 1.1 µM and the IC50 was 3.5 µM.
The matching figures for `CCc1nc(-c2ccc3c(c2)CC[C@H]3NC(=O)c2cnc(CO)n2C)no1` [Compound 613, (R)-N-(5-(5-ethyl-1,2,4-oxadiazol-3-yl)-2,3-dihydro-1H-inden-1-yl)-2-(hydroxymethyl)-1-methyl-1H-imidazole-5-carboxamide]: 0.4 µM and 1.4 µM.
The matching figures for `CCc1nc(-c2ccc3c(c2)OC[C@H]3NC(C)=O)no1` [Compound 443, (S)-N-(6-(5-ethyl-1,2,4-oxadiazol-3-yl)-2,3-dihydrobenzofuran-3-yl)acetamide]: 0.7 µM and 2.6 µM.
Take `CC(=O)N[C@@H]1CCc2cc(-c3noc(C)n3)ccc21` [Compound 407, (R)-N-(5-(5-methyl-1,2,4-oxadiazol-3-yl)-2,3-dihydro-1H-inden-1-yl)acetamide]: the “CDMF75 IC15” value is 3.2 µM and the IC50 is 13.8 µM.
For the compound `CCc1nc(-c2ccc3c(c2)CCCC3NC(=O)c2ccnn2C)no1` (stereo not shown) [Compound 525, N-(6-(5-ethyl-1,2,4-oxadiazol-3-yl)-1,2,3,4-tetrahydronaphthalen-1-yl)-1-methyl-1H-pyrazole-5-carboxamide], the “CDMF75 IC15” value worked out at 0.7 µM and the IC50 stood at 2.5 µM.
The matching figures for `CCc1nc(-c2cc3c(cc2F)[C@H](NC(=O)c2cnn(C)c2)CC3)no1` [Compound 699, (R)-N-(5-(5-ethyl-1,2,4-oxadiazol-3-yl)-6-fluoro-2,3-dihydro-1H-inden-1-yl)-1-methyl-1H-pyrazole-4-carboxamide]: 1.7 µM and 7.5 µM.
The matching figures for `Cc1ccnc(-c2ccc3c(c2)CC[C@H]3NC(=O)c2ccnn2C)n1` [Compound 378, (R)-1-methyl-N-(5-(4-methylpyrimidin-2-yl)-2,3-dihydro-1H-inden-1-yl)-1H-pyrazole-5-carboxamide]: 2.1 µM and 12.2 µM.
In the case of `Cn1nccc1C(=O)N[C@@H]1CCc2cc(-c3ccccc3)ccc21` [Compound 372, (R)-1-methyl-N-(5-phenyl-2,3-dihydro-1H-inden-1-yl)-1H-pyrazole-5-carboxamide], the “CDMF75 IC15” value is 3.5 µM and the IC50 came out at 15.7 µM.
The matching figures for `Cc1nc(C(=O)NC2CCc3cc(-c4noc(C(F)F)n4)ccc32)no1` (stereo not shown) [Compound 84, N-(5-(5-(difluoromethyl)-1,2,4-oxadiazol-3-yl)-2,3-dihydro-1H-inden-1-yl)-5-methyl-1,2,4-oxadiazole-3-carboxamide]: 2.7 µM and 10.8 µM.
The matching figures for `Cc1cc(C(=O)NC2CCc3cc(-c4noc(C)n4)ccc32)ccn1` (stereo not shown) [Compound 3, 2-methyl-N-(5-(5-methyl-1,2,4-oxadiazol-3-yl)-2,3-dihydro-1H-inden-1-yl)isonicotinamide]: 1.8 µM and 7 µM.
The matching figures for `Cc1noc(-c2ccc3c(c2)CC[C@H]3NC(=O)c2cn(C)nc2C)n1` [Compound 201, (R)-1,3-dimethyl-N-(5-(3-methyl-1,2,4-oxadiazol-5-yl)-2,3-dihydro-1H-inden-1-yl)-1H-pyrazole-4-carboxamide]: 1.4 µM and 5.4 µM.
As for `Cc1n[nH]cc1C(=O)N[C@@H]1CCc2cc(-c3noc(C(C)C)n3)ccc21` [Compound 396, (R)-N-(5-(5-isopropyl-1,2,4-oxadiazol-3-yl)-2,3-dihydro-1H-inden-1-yl)-3-methyl-1H-pyrazole-4-carboxamide], the “CDMF75 IC15” value is 0.4 µM and the IC50 turned out to be 1.6 µM.
With `Cc1noc(-c2ccc3c(c2)OC[C@H]3NC(=O)c2cnn(C)c2C)n1` [Compound 343, (S)-1,5-dimethyl-N-(6-(3-methyl-1,2,4-oxadiazol-5-yl)-2,3-dihydrobenzofuran-3-yl)-1H-pyrazole-4-carboxamide], the “CDMF75 IC15” value was 1.8 µM and the IC50 amounted to 6.6 µM.
The matching figures for `Cc1conc1C(=O)NC1CCc2cc(-c3noc(C(F)F)n3)ccc21` (stereo not shown) [Compound 104, N-(5-(5-(difluoromethyl)-1,2,4-oxadiazol-3-yl)-2,3-dihydro-1H-inden-1-yl)-4-methylisoxazole-3-carboxamide]: 1.7 µM and 6.3 µM.
The matching figures for `Cn1nnc(C(=O)NC2COc3cc(-c4noc(C5CC5)n4)ccc32)n1` (stereo not shown) [Compound 234, N-(6-(5-cyclopropyl-1,2,4-oxadiazol-3-yl)-2,3-dihydrobenzofuran-3-yl)-2-methyl-2H-tetrazole-5-carboxamide]: 1.9 µM and 8 µM.
The matching figures for `CCc1nc(-c2ccc3c(c2)CC[C@H]3NC(=O)[C@H]2COCCN2)no1` [Compound 356, (R)-N-((R)-5-(5-ethyl-1,2,4-oxadiazol-3-yl)-2,3-dihydro-1H-inden-1-yl)morpholine-3-carboxamide]: 13.4 µM and over 39.2 µM.

One may read the IC50 as the concentration that inhibits the measured activity by half.
